# According to patent US20100113436A1, “DISPIRO TETRAOXANE COMPOUNDS AND THEIR USE IN THE TREATMENT OF MALARIA AND/OR CANCER” (priority 2006, published 2010):
# Several values for one entry are separate records, joined by “and”; a condition that tells them apart may be missing. Equal values may be shown once. Read-outs that look alike come from different tables or passages of the source. Marks after values point to notes of the source that are not given here.
# Experiments:
# [1] = system: 3D7 strain of Plasmodium falciparum; test: In vitro antimalarial activity, 48-h [3H]-hypoxanthine incorporation assay; assay type: cell-based
# Protocol: The 3D7 strain of Plasmodium falciparum was used in this study. This strain is known to be […] Parasites were maintained in continuous culture using the method of Jensen and Trager^4. […] Stock drug solutions were prepared in 100% dimethylsulphoxide (DMSO) and diluted to the appropriate concentration using complete medium. Assays were performed in sterile 96-well microlitre plates, each plate contained 200 μl of parasite culture (2% parasitemia, 0.5% haematocrit) with or without 10 μl drug dilutions. Each drug was tested in triplicate and parasite growth compared to control wells (which constituted 100% parasite growth). […] IC50 values were calculated by interpolation of the probit transformation of the log dose-response curve.
# [2] = system: Plasmodium yoelli; test: 4-day Peter's suppressive test; assay type: in vivo; conditions: 4-day Peter's test, mice
# Protocol: Selections of the compounds were screened for in vivo activity. In vivo data (Table 6) was determined using 30 mg/kg oral (po) and subcutaneous (sc) doses in a 4-days Peter's test. For subcutaneous administration, compounds were dissolved in 10% dimethylsulfoxide (DMSO) 0.05% Tween 80 (Sigma, Dorset, UK) in distilled water. For oral administration, compounds were dissolved in standard suspending formula (SSV) [0.5% sodium carboxymethylcellulose, 0.5% benzyl alcohol, 0.4% Tween 80, 0.9% NaCl (all Sigma)]. Subcutaneous (s.c) or oral (p.o) treatment was done with 0.2 ml of a solution of the test compound two hours (day 0) and on days 1, 2, and 3 post infections. Parasitaemia was determined by microscopic examination of Giemsa stained blood films taken on day 4. Microscopic counts of blood films from each mouse were processed using MICROSOFT@EXCELL spreadsheet (Microsoft Corp.) and expressed as percentage of inhibition from the arithmetic mean parasitaemias of each group in relation to the untreated group.
# [3] = system: P. berghei ANKA; test: In vivo dose response screening against P. berghei ANKA; design: species or system mice; conditions: for ED50: Plasmodium berghei
# Protocol: Compound 29c, 29h and 291 were then subjected to dose response experiment against the P. berghei ANKA and the results are summarized in Table 7 below.
# [4] = system: Plasmodium falciparum PH3; test: In vitro analysis versus strains of Plasmodium falciparum: PH3; assay type: cell-based
# [5] = system: P. berghei ANKA; test: In vivo dose response screening against P. berghei ANKA; conditions: P. berghei ANKA infected mice, Table 9; for ED90: sigmoidal curve calculation
# [6] = system: HepG2 Human hepatocyte carcinoma; test: Cellular cytotoxicity screen, Resazurin reduction; assay type: cell-based; conditions: Hep2G; for Theraputic Index (TI): ratio TOX 50 to IC50 against 3D7 P. falciparum
# From the text: (§1) Values represent Tox 50 in μM. Cytotoxicity measured by Resazurin reduction.
# (§2) Single full dose response curves generated using 10 independent drug concentrations. The 100 therapeutic index (TI) is the ration of the TOX 50 to the IC50 for the specific compound against the 3D7 P. falciparum isolate. The primary hepatocytes have demonstrable drug metabolising activity. The tetraoxane derivatives are remarkably non-toxic in these screens with in vitro TIs of between 5000 to 17000!.
# [7] = system: H9c2(2-1) Myocardium, heart; test: Cellular cytotoxicity screen, Resazurin reduction; assay type: cell-based, rat; conditions: H9c(2-1); for Theraputic Index (TI): ratio TOX 50 to IC50 against 3D7 P. falciparum
# From the text: as §1, §2
# [8] = system: L6 Sketal muscle myoblast; test: Cellular cytotoxicity screen, Resazurin reduction; assay type: cell-based, rat; conditions: for Theraputic Index (TI): ratio TOX 50 to IC50 against 3D7 P. falciparum
# From the text: as §1, §2
# [9] = system: MRC-5 Embryonal lung, diploid; test: Cellular cytotoxicity screen, Resazurin reduction; assay type: cell-based, Human; conditions: for Theraputic Index (TI): ratio TOX 50 to IC50 against 3D7 P. falciparum
# From the text: as §1, §2
# [10] = system: Vero Kidney; test: Cellular cytotoxicity screen, Resazurin reduction; assay type: cell-based, African green monkey, Cercopithecus aethiops; conditions: for Theraputic Index (TI): ratio TOX 50 to IC50 against 3D7 P. falciparum
# From the text: as §1, §2
# [11] = system: Salmonella typhimurium NM2009; test: Salmonella typhimurium SOS/umu genotoxicity assay; conditions: for Max. Fold Increase / Potential genotox: −S9
# From the text: (§3) This assay is based on the ability of DNA damaging agents to induce the expression of the umu operon. The Salmonella strains have a plasmid pSK1002 which carries an umuC-lacZ fused gene that produces a hybrid protein with β-galactosidase activity and whose expression is controlled by the umu regulatory region.
# [12] = system: Salmonella typhimurium TA1535/pSK1002; test: Salmonella typhimurium SOS/umu genotoxicity assay; conditions: for Max. Fold Increase / Potential genotox: −S9; for genotoxicity result in SOS/umu assay: both strains TA1535/pSK1002 and NM2009, highest concentration tested 50 μM, absence and presence of S-9 mix
# From the text: as §3
# [13] = physchem
# [14] = system: Plasmodium falciparum DD2; test: In vitro analysis versus strains of Plasmodium falciparum: DD2; assay type: cell-based; conditions: DD2 strain, read-out: IC50
# [15] = system: Plasmodium falciparum K1; test: In vitro analysis versus strains of Plasmodium falciparum: K1; assay type: cell-based; conditions: K1 strain
# [16] = system: Plasmodium falciparum GC03; test: In vitro analysis versus strains of Plasmodium falciparum: GC03; assay type: cell-based; conditions: GC03 strain, read-out: IC50
# [17] = system: Plasmodium falciparum HB3; test: In vitro analysis versus strains of Plasmodium falciparum: HB3; assay type: cell-based; conditions: HB3 strain, read-out: IC50
# [18] = system: Plasmodium falciparum TM4; test: In vitro analysis versus strains of Plasmodium falciparum: TM4; assay type: cell-based; conditions: TM4 strain, read-out: IC50
# [19] = Timed iron degradation stability, FeBr2 in THF; assay type: physicochemical; conditions: ferrous bromide/THF
# From the text: The resulting residue was purified by flash column chromatography and the % recovery of starting endoperoxide calculated (Table 15).
# [20] = 3D7, 3D7 strain, mean of triplicate results, Table 5, read-out: Mean IC50
# [21] = Chloroquine Resistant Strains of the P. Berghei ANKA, Table 7
# [22] = in Mus musculus, Chloroquine Resistant Strains of the P. Berghei ANKA, Table 7
structure (smiles),measurement,setting,value
"CO[C@H]1O[C@@H]2O[C@@]3(C)CC[C@H]4[C@H](C)CC[C@@H]([C@H]1C)[C@@]24OO3 [Artemether, artemether, reference compound]",IC50,[1]; [20],1.7 nM
same,IC50,"[1]; 3D7, sulfonamide dispiro 1,2,4,5-tetraoxanes, Table 8, read-out: Mean IC50",3.2 nM
same,Percentage of inhibition at 30 mg/kg (p.o),[2],100%
same,ED90,[3]; [21],10.57 mg/kg
same,ED50,[3]; [22],5.88 mg/kg
"C[C@H]1[C@H](OC(=O)CCC(=O)O)O[C@@H]2O[C@@]3(C)CC[C@H]4[C@H](C)CC[C@@H]1[C@@]24OO3 [Artesunate, artesunate]",Percentage of inhibition at 30 mg/kg (p.o),[2],100%
same,IC50,[4],0.9 nM
same,ED50,[5],2.90 mg/kg
same,ED90,[5],17.78 mg/kg and 16.67 mg/kg
same,ED50,"[5]; Plasmodium berghei, in Mus musculus",3.2 mg/kg
COc1cccc2c1C(=O)c1c(O)c3c(c(O)c1C2=O)C[C@@](O)(C(=O)CO)C[C@@H]3O[C@H]1C[C@H](N)[C@H](O)[C@H](C)O1 [Doxorubicin],Tox 50,[6],0.3 µM
same,Tox 50,[7],3 µM
same,Tox 50,[8],>5 µM
same,Tox 50,[9],2 µM
same,Tox 50,[10],>5 µM
"Nc1ccc2cc3ccccc3cc2c1 [Tetraoxane 2Aan, 2-Aminoanthracene, reference compound]",MCE NM2009 (Maximum Co w/o effects on bacteria growth or beta-galactosidase production),[11]; in the presence of rat S9,0.31* μg/mL
same,Max. Fold Increase,[11],1.08 ± 0.01 fold
same,Potential genotox,[11],NEG
same,MCE TA1535 (Maximum Co w/o effects on bacteria growth or β-galactosidase production),[12]; positive controls,5 µg/mL
same,Max. Fold Increase,[12],1.10 ± 0.11 fold
same,Potential genotox,[12],NEG
same,solubility,[13],5 µg/mL
"O=C(CC1CCC2(CC1)OOC1(CCCCC1)OO2)NC1CC1 [Tetraoxane 27c, N-Cyclopropyl-2-(7,8,15,16-tetraoxa-dispiro[5.2.5.2]hexadec-3-yl)-acetamide]",Percentage of inhibition at 30 mg/kg (p.o),[2],24.8%
same,melting point,,148 to 150 °C
"O=C(CC1CCC2(CC1)OOC1(CCCCC1)OO2)N1CCOCC1 [Tetraoxane 27h, 1-Morpholin-4-yl-2-(7,8,15,16-tetraoxa-dispiro[5.2.5.2]hexadec-3-yl)-ethanone]",IC50,[1]; [20],22.2 nM
same,Percentage of inhibition at 30 mg/kg (p.o),[2],33.0%
same,melting point,,126 to 128 °C
"O=C(CC1CCC2(CC1)OOC1(OO2)C2CC3CC(C2)CC1C3)NC1CC1 (stereo not shown) [Tetraoxane 29c, Adamantyl-N-Cyclopropyl tetraoxane acetamide]",IC50,[1]; [20],2.3 nM
same,Percentage of inhibition at 30 mg/kg (p.o),[2],100%
same,ED90,[3]; [21],20.33 mg/kg
same,ED50,[3]; [22],10.3 mg/kg
same,melting point,,140 to 142 °C
"O=C(CC1CCC2(CC1)OOC1(OO2)C2CC3CC(C2)CC1C3)N1CCOCC1 (stereo not shown) [Tetraoxane 29h, Adamantly-1-Morpholin-4-yl tetraoxane acetamide]",IC50,"[1]; 3D7, read-out: Mean IC50",5.2 nM
same,Percentage of inhibition at 30 mg/kg (p.o),[2],100%
same,ED90,[3]; [21],3.88 mg/kg
same,ED50,[3]; [22],3.18 mg/kg
same,IC50,[14],0.6 nM
same,IC50,[15],0.8 nM
same,IC50,[16],0.9 nM
same,IC50,[17],1.4 nM
same,IC50,"[4]; PH3 strain, read-out: IC50",0.3 nM
same,IC50,[18],0.6 nM
same,Tox 50,[6],>50 µM
same,Theraputic Index (TI),[6],>16666
same,Tox 50,[7],>50 µM
same,Theraputic Index (TI),[7],>16666
same,Tox 50,[8],23 µM
same,Theraputic Index (TI),[8],7666
same,Tox 50,[9],>50 µM
same,Theraputic Index (TI),[9],>16666
same,Tox 50,[10],>50 µM
same,Theraputic Index (TI),[10],>16666
same,MCE NM2009 (Maximum Co w/o effects on bacteria growth or beta-galactosidase production),[11]; Salmonella typhimurium,50 µM
same,Max. Fold Increase,[11],1.22 ± 0.03 fold
same,Potential genotox,[11],NEG
same,MCE TA1535 (Maximum Co w/o effects on bacteria growth or β-galactosidase production),[12]; Salmonella typhimurium,50 µM
same,genotoxicity result in SOS/umu assay,[12],Negative
same,Max. Fold Increase,[12],1.04 ± 0.04 fold
same,Potential genotox,[12],NEG
same,melting point,,139 to 140 °C
same,solubility,[13],50 µM
CN1CCN(C(=O)CC2CCC3(CC2)OOC2(OO3)C3CC4CC(C3)CC2C4)CC1 (stereo not shown) [Tetraoxane 29l],IC50,[1]; [20],0.5 nM
same,Percentage of inhibition at 30 mg/kg (p.o),[2],100%
same,ED50,[3]; [22],2.7 mg/kg
O=S(=O)(C1CC1)N1CCC2(CC1)OOC1(OO2)C2CC3CC(C2)CC1C3 [Tetraoxane 39d],IC50,"[1]; 3D7, read-out: Mean IC50",3.52 nM
same,ED50,"[3]; P. berghei ANKA infected mice, Table 9",7.93 mg/kg
same,Tox 50,[6],>50 µM
same,Theraputic Index (TI),[6],>14285
same,Tox 50,[7],>50 µM
same,Theraputic Index (TI),[7],>14285
same,Tox 50,[8],>50 µM
same,Theraputic Index (TI),[8],>14285
same,Tox 50,[9],>50 µM
same,Theraputic Index (TI),[9],>14285
same,Tox 50,[10],>50 µM
same,Theraputic Index (TI),[10],>14285
same,MCE NM2009 (Maximum Co w/o effects on bacteria growth or beta-galactosidase production),[11]; Salmonella typhimurium,50 µM
same,Max. Fold Increase,[11],1.09 ± 0.03 fold
same,Potential genotox,[11],NEG
same,MCE TA1535 (Maximum Co w/o effects on bacteria growth or β-galactosidase production),[12]; Salmonella typhimurium,50 µM
same,genotoxicity result in SOS/umu assay,[12],Negative
same,Max. Fold Increase,[12],1.05 ± 0.09 fold
same,Potential genotox,[12],NEG
same,ED90,[5],49.77 mg/kg
same,solubility,[13],50 µM
O=S(=O)(c1ccccc1)N1CCC2(CC1)OOC1(O2)C2CC3CC(C2)CC1C3 (stereo not shown) [Tetraoxane 42],degradation,[19]; after 4 h,~90%
same,turnover,[19]; after 48 h,100%
O=S(=O)(c1ccccc1)N1CCC2(CC1)COC1(OO2)C2CC3CC(C2)CC1C3 (stereo not shown) [Tetraoxane 43],degraded,[19]; after 48 h,57%
